In US20220288081A1, “TREATMENT OF EXCITOTOXICITY-RELATED CONDITIONS” (priority 2019, published 2022):

What was measured:
Format in all cases: in vivo
[1] = system: non-transgenic (wt) mice; experiment: Telemetric hippocampal EEG recordings in non-transgenic (wt) mice; details: pre and post intraperitoneal injection
Experimental: (§1) FIG. 3. LIMK1 inhibition reduced susceptibility to induced seizures and mitigated neuronal network hypersynchronisity in mice. (A) Excitotoxic seizures were induced by acute intraperitoneal injection of 50 mg/kg body weight pentylenetetrazole (PTZ) followed by timing and scoring (0=no seizures to 7=terminal status epilepticus) of seizure development. Mice were treated with vehicle or 10 mg/kg body weight LIMK1 inhibitor LIMKi intraperitoneally 30 minutes prior to seizure induction. […] (B) Compound hippocampal electroencephalography (EEG) recordings over 4 hours in non-transgenic (wt) and APP transgenic (APP23) mice including 2 hours before (Pre) and 2 hours after (Post) LIMKi or vehicle administration. Time of intraperitoneal LIMKi and vehicle administration is indicated with an arrow. […] Frequent spikes pre and post vehicle administration in APP23 mice. In contrast, LIMKi injection mitigates spike activity in APP23 post injection. […] From left to right: non-Tg+vehicle; non-Tg+LIMKi; APP23+vehicle; APP23+LIMKi.
Electroencephalography. Hippocampal EEG recordings were done with implanted telemetric electrodes (D.S.I.) as previously described (Ittner et al., 2014, Acta neuropathologica communications 2, 149). All recordings were done with mice individually housed in their home cages one week after implantation of transmitters. […]

[2] = system: C57Bl/6 mice; experiment: Pentylenetetrazole (PTZ)-induced excitotoxic seizure model; details: for mean seizure severity (score 0 to 5): n=9
Experimental: as §1
Seizure model. Excitotoxic seizure were induced in mice by intraperitoneal injection of 50 mg/kg body weight pentylenetetrazole followed by observation in a square area (40×40 cm). Scoring of seizures was done as previously described (Ittner et al., 2010, Cell 142, 387-397). For LIMKi-treated mice, scoring was adjusted by combining the severe seizure scores 5 to 7 into a single score of 5. For both scales, minor to moderate seizures are reflected by scores <5.
(§2) Next, the inventors tested the effects of acute Compound 1 administration on neuronal network activity in APP23 mice. […] Furthermore, CFC 1 hour after Compound 1 administration was re-established (data not shown). […] Thus, inhibition of LIMK1 with Compound 1 conferred protection from Aβ toxicity in neurons and from excitotoxicity in vivo. Furthermore, treatment of APP23 with Compound 1 corrected network aberrations including CFC.

[3] = system: APP23 mice; experiment: Telemetric hippocampal EEG recordings (spike analysis, cross frequency coupling) in APP23 mice; details: for amplitude phase in EEG recordings / modulation index of cross frequency coupling: vs wt controls; for spike frequency / hypersynchronous discharges in EEG: intraperitoneal, 2 hours pre vs 2 hours post administration, and vs vehicle
Experimental: as §1
Mice. APP23 express human Swedish mutant (K595N/M596L) amyloid-β precursor protein (APP) in neurons (Sturchler-Pierrat et al., 1997, Proc Natl Acad Sci USA 94, 13287-13292). Limk1^−/− mice have been reported previously (Meng et al., 2002, Neuron 35, 121-133). All mice were on a pure C57Bl/6 background. Mice were housed in standard individually ventilated cages on a 12 hour light/dark cycle with access to standard chow and water ad libitum. Mice of both genders were used unless otherwise indicated. Investigators were blinded to genotypes until after completion of data analysis. All experiments were approved by the Animal Ethics Committee of Macquarie University.
Electroencephalography. Hippocampal EEG recordings were done with implanted telemetric electrodes (D.S.I.) as previously described (Ittner et al., 2014, Acta neuropathologica communications 2, 149). All recordings were done with mice individually housed in their home cages one week after implantation of transmitters. Compound administration was done intraperitoneally during transient restraining of mice. Vehicle for the LIMK1 inhibitor LIMKi contained hydroxypropyl methylcellulose 606 (HPMC 606) with polyvinylpyrrolidone k17 (PVP k17) and tween 80 in a proportion of 0.5%, 0.5%, 0.1%, respectively. Spike analysis was done with the Neuroscore software module (D.S.I.) as previously described (Ittner et al., 2016, Science 354, 904-908). Cross frequency coupling of theta and gamma waves was performed as previously described (Ittner et al., 2016, Science 354, 904-908).
as §2

[4] = 10 mg/kg intraperitoneally 30 minutes prior to 50 mg/kg PTZ i.p., vs vehicle controls
[5] = 1 hour after administration, n=8
[6] = 1 hour after administration, n=8, listed as LIMKi

Cc1c[nH]c2ncnc(N3CCN(/C(=N\C#N)Nc4cccc(Br)c4)[C@@H](C)C3)c12 [Compound 1]
spike activity in EEG [1]: No overt spike activity
latency to develop severe seizures ([2]; 10 mg/kg 30 minutes prior to PTZ, C57Bl/6 mice): increased the latency to develop severe seizures
development of severe seizure stages over time (score=5) [2, 4]: Only vehicle-treated mice develop severe seizure stages over time
latency to develop lower grade seizures (score <5) [2, 4]: Delayed latency to develop lower grade seizures
mean seizure severity (score 0 to 5) [2, 4]: significantly reduced mean seizure severity
mean seizure severity (score 0 to 5) ([2]; 10 mg/kg intraperitoneally 30 minutes prior to 50 mg/kg PTZ i.p., vs vehicle controls, listed as LIMKi): Significantly reduced seizure severity
cross frequency coupling (CFC) ([3]; 1 hour after administration, data not shown): re-established
amplitude phase in EEG recordings [3, 5]: normalized
modulation index of cross frequency coupling [3, 5]: normalized
amplitude phase in EEG recordings [3, 6]: corrected 1 hour after LIMKi delivery and no longer different from wt controls
modulation index of cross frequency coupling [3, 6]: corrected 1 hours after LIMKi administration and no longer different from wt controls
spike frequency / hypersynchronous discharges in EEG ([3]; n=8): hypersynchronicity significantly decreased
spike frequency / hypersynchronous discharges in EEG ([3]; n=8, listed as LIMKi): significantly reduced spike frequency
